Results published in patent US7740463B2, “Pressurised metered dose inhalers (MDI)” (Chiesi Farmaceutici S.p.A., priority 1998, dated 2010).
Where “and” joins values, the source holds several entries; their conditions need not be identical. Identical values can stand only once.

Tests used:
[1] = Chemical stability of flunisolide HFA 134a composition of Example 7 in cans of different types (percent drug remaining, HPLC); assay type: physicochemical
[2] = flunisolide/ethanol/HFA compositions of WO 95/17195, Table 8 of that application; cited from earlier work
[3] = Chemical stability of flunisolide HFA 134a composition of Example 7 in cans of different types (percent drug remaining, HPLC); assay type: physicochemical; remark: listed apart in the source
Protocol: A composition containing 60 mg of flunisolide (250 μg/dose), […], 1% (w/w) glycerol in HFA 134a to 12 ml/can was distributed in anodised aluminium, glass cans or in cans having different internal coatings and were stored for 41 days at 50° C.

[4] = Effect of different acids on chemical stability of the composition of Example 1 in epoxy-phenol resin (4) coated cans; assay type: physicochemical; details: epoxy-phenol (4) coated cans
Protocol: The effect of different acids on the chemical stability of the composition of Example 1 was studied.
The stability of the compositions was tested after 1, 2 and 5 months storage at 40° C. in epoxy-phenol resin (4) coated cans.

[5] = Chemical stability of dexbudesonide HFA 227 compositions of Example 5 in anodised aluminium cans (HPLC, epimeric distribution); assay type: physicochemical; details: for % Residual dexbudesonide / % residual dexbudesonide relative to t = 0: HFA 227, anodised aluminium cans
Protocol: Compositions containing 7.2, 12, 16.8 mg of dexbudesonide (corresponding to 30, 50 and 70 μg/dose respectively), ethanol, 0.9 (w/w) PEG 400 or isopropyl myristate (IPM) in HFA 227 to 12 ml can was distributed in aluminium anodised cans and was stored 70 days at 50° C.

[6] = Chemical stability of dexbudesonide HFA 134a composition of Example 4 in epoxy-phenol lacquered aluminium cans (HPLC, epimeric distribution); assay type: physicochemical
Protocol: A composition containing 48 mg of dexbudesonide (200 μg/dose), 15% (w/w) ethanol, 1.3% (w/w) glycerol in HFA 134a to 12 ml can was distributed in epoxy-phenol lacquered aluminium cans and was stored at 40° C.

[7] = Fine particle dose of dexbudesonide solution compositions, Andersen Cascade Impactor; assay type: physicochemical; details: for MMAD: low volatility compound 0.9% (w/w); for FPF: Fine particle dose/Delivered dose × 100; for Delivered dose: ex actuator; for FPD: particles lower than 4.7 μm, average of 10 shots; for Metered dose: sum of delivered dose and actuator residue
Protocol: The fine particle dose (FPD: weight of particles having an aerodynamic diameter lower than 4.7 μm) of dexbudesonide solution compositions in HFA 134a or HFA 227, prepared following the examples 4 and 5, was determined.
The experiments were performed using the Andersen Cascade Impactor and the data obtained are average values from 10 shots.
The FPD gives a direct measure of the mass of particles within the specified size range and is closely related to the efficacy of the product.

[8] = can: Anodised aluminum, t = 93 days (50° C. per title)
[9] = can: Epoxy phenol resin (1), t = 41 days at 50° C.
[10] = can: Epoxy phenol resin (1), t = 93 days (50° C. per title)
[11] = can: Epoxy phenol resin (2), t = 93 days (50° C. per title)
[12] = can: Epoxy phenol resin (3), t = 41 days at 50° C.
[13] = can: Epoxy phenol resin (3), t = 93 days (50° C. per title)
[14] = can: Anodised aluminum, t = 41 days at 50° C.
[15] = can: Epoxy phenol resin (2), t = 41 days at 50° C.
[16] = metered dose 30 μg, ethanol 5% (w/w), IPM 0.9% (w/w), t = 70 days at 50° C.
[17] = metered dose 30 μg, ethanol 5% (w/w), PEG 400 0.9% (w/w), t = 70 days at 50° C.
[18] = metered dose 50 μg, ethanol 8% (w/w), IPM 0.9% (w/w), t = 70 days at 50° C.
[19] = metered dose 50 μg, ethanol 8% (w/w), PEG 400 0.9% (w/w), t = 70 days at 50° C.
[20] = metered dose 70 μg, ethanol 7% (w/w), IPM 0.9% (w/w), t = 70 days at 50° C.
[21] = metered dose 70 μg, ethanol 7% (w/w), PEG 400 0.9% (w/w), t = 70 days at 50° C.
[22] = HFA 134a, 60 μg/shot, ethanol 8% (w/w), IPM 0.9% (w/w)
[23] = HFA 227, 63 μg/shot, ethanol 7% (w/w), IPM 0.9% (w/w)
[24] = HFA 227, 63 μg/shot, ethanol 7% (w/w), PEG 400 0.9% (w/w)

Structure (SMILES): CC1(C)O[C@@H]2C[C@H]3[C@@H]4C[C@H](F)C5=CC(=O)C=C[C@]5(C)[C@H]4[C@@H](O)C[C@]3(C)[C@]2(C(=O)CO)O1 [flunisolide]
- % RESIDUAL FLUNISOLIDE [1, 8]: 100.7%
- % RESIDUAL FLUNISOLIDE RELATIVE TO t = 0 [1, 8]: (99.1) %
- % RESIDUAL FLUNISOLIDE [1, 9]: 99.2%
- % RESIDUAL FLUNISOLIDE RELATIVE TO t = 0 [1, 9]: (101) %
- % RESIDUAL FLUNISOLIDE [1, 10]: 101.4%
- % RESIDUAL FLUNISOLIDE RELATIVE TO t = 0 [1, 10]: (103) %
- % RESIDUAL FLUNISOLIDE [1, 11]: 101.9%
- % RESIDUAL FLUNISOLIDE RELATIVE TO t = 0 [1, 11]: (100) %
- % RESIDUAL FLUNISOLIDE ([1]; can: Epoxy phenol resin (3), t = 0): 101.7%
- % RESIDUAL FLUNISOLIDE RELATIVE TO t = 0 [1, 12]: (97.5) %
- % RESIDUAL FLUNISOLIDE [1, 13]: 101.2%
- % RESIDUAL FLUNISOLIDE RELATIVE TO t = 0 [1, 13]: (99.6) %
- % RESIDUAL FLUNISOLIDE ([1]; can: Glass type III, t = 93 days (50° C. per title)): 97.5%
- decomposition in containers [2]: decomposes only in plastic cans
- % RESIDUAL FLUNISOLIDE ([3]; can: Anodised aluminum, t = 0): 101.6%
- % RESIDUAL FLUNISOLIDE [3, 14]: 100.4%
- % RESIDUAL FLUNISOLIDE RELATIVE TO t = 0 [3, 14]: (98.8) %
- % RESIDUAL FLUNISOLIDE ([3]; can: Epoxy phenol resin (1), t = 0): 98.4%
- % RESIDUAL FLUNISOLIDE ([3]; can: Epoxy phenol resin (2), t = 0): 101.9%
- % RESIDUAL FLUNISOLIDE [3, 15]: 99.7%
- % RESIDUAL FLUNISOLIDE RELATIVE TO t = 0 [3, 15]: (97.8) %
- % RESIDUAL FLUNISOLIDE [3, 12]: 99.2%

Structure (SMILES): CC(C)[N+]1(C)[C@@H]2CC[C@H]1CC(OC(=O)C(CO)c1ccccc1)C2.[Br-] (some centres unmarked) [ipratropium bromide]
- % RESIDUAL IPBr ([4]; acid: Ascorbic, t = 0): 119%
- % RESIDUAL IPBr ([4]; acid: Ascorbic, t = 1 month at 40° C.): 113%
- % RESIDUAL IPBr ([4]; acid: Ascorbic, t = 2 months at 40° C.): 112%
- % RESIDUAL IPBr ([4]; acid: Ascorbic, t = 5 months at 40° C.): 110%
- % RESIDUAL IPBr ([4]; acid: Citric (0.07% w/w), t = 1 month at 40° C.): 98%
- % RESIDUAL IPBr ([4]; acid: Citric (0.3% w/w), t = 2 months at 40° C.): 100%
- % RESIDUAL IPBr ([4]; acid: Citric (0.6% w/w), t = 0): 98%
- % RESIDUAL IPBr ([4]; acid: Citric (0.6% w/w), t = 1 month at 40° C.): 98%
- % RESIDUAL IPBr ([4]; acid: Hydrochloric (4 μl-1 N), t = 0): 101%
- % RESIDUAL IPBr ([4]; acid: Hydrochloric (4 μl-1 N), t = 1 month at 40° C.): 100%
- % RESIDUAL IPBr ([4]; acid: Hydrochloric (4 μl-1 N), t = 2 months at 40° C.): 104%
- % RESIDUAL IPBr ([4]; acid: Hydrochloric (10 μl-1 N), t = 0): 101%
- % RESIDUAL IPBr ([4]; acid: Hydrochloric (10 μl-1 N), t = 1 month at 40° C.): 98%
- % RESIDUAL IPBr ([4]; acid: Hydrochloric (10 μl-1 N), t = 2 months at 40° C.): 98%
- % RESIDUAL IPBr ([4]; acid: Hydrochloric (20 μl-1 N), t = 0): 100%
- % RESIDUAL IPBr ([4]; acid: Hydrochloric (20 μl-1 N), t = 2 months at 40° C.): 98%
- % RESIDUAL IPBr ([4]; acid: None, t = 2 months at 40° C.): 98%

Structure (SMILES): CCC[C@@H]1O[C@@H]2C[C@H]3[C@@H]4CCC5=CC(=O)C=C[C@]5(C)[C@H]4[C@@H](O)C[C@]3(C)[C@]2(C(=O)CO)O1 [dexbudesonide]
- epimeric distribution ([5]; Example 5 compositions, anodised aluminium cans, 70 days at 50° C.): no transfer from the 22R to the 22S epimer
- % Residual dexbudesonide ([5]; metered dose 30 μg, ethanol 5% (w/w), IPM 0.9% (w/w), t = 0 days): 98.1%
- % Residual dexbudesonide [5, 16]: 96.8%
- % residual dexbudesonide relative to t = 0 [5, 16]: (98.7) %
- % Residual dexbudesonide ([5]; metered dose 30 μg, ethanol 5% (w/w), PEG 400 0.9% (w/w), t = 0 days): 95.8%
- % Residual dexbudesonide [5, 17]: 95.8%
- % residual dexbudesonide relative to t = 0 [5, 17]: (100) %
- % Residual dexbudesonide ([5]; metered dose 50 μg, ethanol 8% (w/w), IPM 0.9% (w/w), t = 0 days): 98.0%
- % Residual dexbudesonide [5, 18]: 99.4%
- % residual dexbudesonide relative to t = 0 [5, 18]: (101) %
- % Residual dexbudesonide ([5]; metered dose 50 μg, ethanol 8% (w/w), PEG 400 0.9% (w/w), t = 0 days): 99.0%
- % Residual dexbudesonide [5, 19]: 98.0%
- % residual dexbudesonide relative to t = 0 [5, 19]: (98.9) %
- % Residual dexbudesonide ([5]; metered dose 70 μg, ethanol 7% (w/w), IPM 0.9% (w/w), t = 0 days): 100.4%
- % Residual dexbudesonide [5, 20]: 96.3%
- % residual dexbudesonide relative to t = 0 [5, 20]: (96.0) %
- % Residual dexbudesonide ([5]; metered dose 70 μg, ethanol 7% (w/w), PEG 400 0.9% (w/w), t = 0 days): 95.7%
- % Residual dexbudesonide [5, 21]: 93.75%
- % residual dexbudesonide relative to t = 0 [5, 21]: (98.0) %
- percent drug remaining ([6]; 200 μg/dose, 15% (w/w) ethanol, 1.3% (w/w) glycerol, HFA 134a, 8 months at 40° C., average of two tests): 95.4%
- epimeric distribution ([6]; Example 4 composition, stored at 40° C.): no transfer from the 22R to the 22S epimer
- MMAD ([7]; HFA 134a solution formulation, 14.4 mg/can (60 μg/shot), ethanol 8% (w/w)): 2.0 μm
- FPF [7, 22]: 73.6% and 77.4%
- Delivered dose [7, 22]: 54.2 µg and 50.9 µg
- FPD [7, 22]: 39.9 µg and 39.4 µg
- Metered dose [7, 22]: 57.9 µg and 53.2 µg
- FPF [7, 23]: 75.5%
- Delivered dose [7, 23]: 59.7 µg
- FPD [7, 23]: 45.0 µg
- Metered dose [7, 23]: 63.9 µg
- FPF [7, 24]: 78.9%
- Delivered dose [7, 24]: 61.5 µg
- FPD [7, 24]: 48.5 µg
- Metered dose [7, 24]: 65.5 µg
- MMAD ([7]; HFA 227 solution formulation, 15.12 mg/can (63 μg/shot), ethanol 7% (w/w)): 2.0 μm
